Reference: patent US11292773B2, “Small molecule inhibitors of BCL-2-associated death promoter (BAD) phosphorylation” (NATIONAL UNIVERSITY OF SINGAPORE, priority 2017, dated 2022)

What was measured:
[1] = test system: various kinases in MCF7 cells; assay: Human Phospho-Kinase Antibody Array; type: cell-based; conditions: NPB 10 μM, 12 h, vs DMSO
Experimental: (A) Western blot analysis was used to assess the level of BAD Ser99 phosphorylation of pBAD, BAD, pAKT, and AKT in MCF7 cells after an increasing period of treatment with NPB (10 μM). Soluble whole cell extracts were run on an SDS-PAGE and immunoblotted as described in methodology. The sizes of detected protein bands in kDa are shown on the left side. (B) Kinases and phosphorylated substrates were detected using a Western Blot array (Proteome Profiler Human Phospho-Kinase Array Kit. MCF7 cells treated with NPB (10 μM) or DMSO for 12 h at 37° C. before preparation of cell lysate. Mean pixel density was analysed using ImageJ software and is represented below.
To elucidate the possibility that NPB decreased hBAD Ser99 phosphorylation by modulation of kinase activity, we assessed the effects of NPB on various kinases using Human Phospho-Kinase Antibody Array Kit from R&D Systems.

[2] = test system: MCF7 cells; assay: Annexin V and propidium iodide apoptosis assay (FACS); type: cell-based, human; conditions: about 24 hours, dose dependent manner
Experimental: Phosphatidylserine exposure and cell death are assessed by FACS analysis using Annexin-V-FLUOS Staining Kit (Life Technologies, Singapore) and PI-stained cells. Briefly, 1×10^5 MCF cells/well (190 μL/well) are seeded in 6-well plates and incubated with different concentrations of NPB for about 24 hours and DMSO treated samples are used as control. Cells are then washed with Annexin V binding buffer (10 mM HEPES/NaOH, pH7.4, 140 mM NaCl, 2.5 mM CaCl2), stained with Annexin V FITC for about 30 minutes at room temperature in the dark, then washed again and re-suspended in Annexin V binding buffer containing PI. Samples are analyzed immediately on a BD FACSAria Cell Sorter (BD Biosciences, San Jose, Calif.).
Loss of membrane integrity and translocation of phosphatidylserine to outer leaflet of plasma membrane are the early events of apoptosis which can be detected using FITC conjugated annexin-V and propidium iodide staining. It is observed that NPB induces apoptosis in MCF7 cells using FITC-annexin V and propidium iodide. On treatment with NPB, increase in both early (PI negative, FITC-Annexin V positive) and late apoptotic cells (PI positive, FITC-Annexin V positive) is observed in a dose dependent manner as shown in FIG. 13A.

[3] = target: T1, hBAD Ser99 phosphorylation (Homo sapiens, UniProt Q92934); assay: Western blot of BAD Ser99 phosphorylation in MCF7 cells; type: cell-based
T1 construct: endogenous in cells; host or cells: MCF7 (A6); 25 carcinoma cell lines of seven cancer types (A7)
T1 sequence (Q92934 1-168): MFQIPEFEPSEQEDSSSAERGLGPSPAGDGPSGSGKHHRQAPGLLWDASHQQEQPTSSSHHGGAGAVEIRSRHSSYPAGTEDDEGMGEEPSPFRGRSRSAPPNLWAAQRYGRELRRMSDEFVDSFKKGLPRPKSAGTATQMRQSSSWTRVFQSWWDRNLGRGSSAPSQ
Experimental: (A) Sensorgrams obtained by SPR analysis of NPB with the BAD protein subunit. The BAD protein subunit was immobilized onto the surface of a CM5 sensor chip. A solution of NPB at variable concentrations (20-100 μM) was injected to generate result binding responses (RU) recorded as a function of time (sec). The results were analyzed using BIA evaluation 3.1. (B) Western blot (WB) analysis was used to assess the level of Ser99 phosphorylation of BAD in MCF7 cells after treatment with NPB. (Below) Calculated IC50 of NPB from dose-response for BAD phosphorylation (Ser99), BAD and β-ACTIN as in shown above by use of ImageJ software from NIH, USA (http://imagej.nih.gov/ij/). (C) WB analysis was used to assess the level of a multiple proteins involved upstream of BAD in MCF7 cells after treatment with NPB. (D) WB analysis was used to assess the level of a multiple protein involved cell survival and cell proliferation in MCF7 cells after treatment with NPB. For WB analysis, soluble whole cell extracts were run on an SDS-PAGE and immunoblotted as described in methodology. β-ACTIN (ACTB) was used as an input control for cell lysate. The sizes of detected protein bands in kDa are shown on the left side.
Phosphorylation of hBAD at residues Ser-75 (mouse BAD serine residue 112) and Ser-99 (mouse BAD serine residue 136) are crucial in regulating the activity of the BCL-2 family of anti-apoptotic proteins. hBAD phosphorylation either at Ser-75 or Ser99 (or the corresponding residues in mouse bad) results in loss of the ability of hBAD to heterodimerize with BCL-xL or BCL-2 [15]. To further validate the predicted target, we first analyzed the effect of NPB on phosphorylation of hBAD at Ser99 by western blot analysis.

[4] = target: T2, Human recombinant BAD protein (Homo sapiens, UniProt Q92934); assay: Surface plasmon resonance analysis (BIAcore); type: binding; conditions: SPR
T2 construct: purchased MyBiosource, USA MBS143012
T2 sequence (Q92934 1-168): T1 sequence (Q92934 1-168)
Experimental: To provide molecular interaction of the most promising candidate, NPB binding affinity to BAD, we performed surface plasmon resonance (SPR) measurements with immobilized BAD subunit using NPB as the analyte. We know that BAD could bind to BAD subunit in vitro. […] The recombinant BAD was immobilized on CM5 sensor chip. To determine the association and dissociation curves, various concentrations of NPB were injected individually onto the surface of a sensor chip coated with BAD. The overlaid sensorgrams shown in FIG. 14 were analyzed collectively.
Molecular interactions were analyzed based on surface plasmon resonance using a BIAcore-2000 system (BIAcore AB, Uppsala, Sweden). Human recombinant BAD protein (Catalog No. MBS143012, MyBiosource, USA) was immobilized on a sensor chip as described by the manufacturer protocol. To examine the interaction of BAD with NPB, various concentrations of NPB (20 to 100 μM) in the running buffer (HBS-EP, pH 7.4, BIAcore AB) were injected onto the surface of the BAD-immobilized sensor chip with a flow rate of 15 μl/min as per the manufacturer's directions. NPB was allowed to interact with BAD subunit for 2 min for association and dissociation, respectively, after which the sensor chip was regenerated by injecting 1 M NaCl for 2 min before the next injection. Using BIA evaluation software 4.1 (BIAcore AB), the kinetic parameters were such as association and dissociation rate constants (ka and kd), dissociation equilibrium constants (Kd) using a 1:1 binding model with mass transfer. Sensograms obtained were overlaid using BIA evaluation software.

Structure (SMILES): O=C(NC1CCCC1)c1cccc(C(c2ccccc2O)N2CCN(c3cccc(Cl)c3Cl)CC2)c1 (centres unmarked) [NPB, N-cyclopentyl-3-((4-(2,3-dichlorophenyl)piperazin-1-yl)(2-hydroxyphenyl)methyl) benzamide]
- kinase activity or phosphorylated substrates [1]: No significant changes
- early and late apoptotic cells (FITC-Annexin V / PI) [2]: increase
- phosphorylation of hBAD Ser99 [3]: dose dependent decrease
- total hBAD protein [3]: without a significant change
- EC50 ([3]; ImageJ, read-out: EC50 for inhibition of BAD Ser99 phosphorylation): 410 ± 210 nM
- Kd ([4]; 1:1 binding model with mass transfer, read-out: dissociation equilibrium constants (Kd)): 37.1 µM
- kon ([4]; immobilized BAD, NPB 20 to 100 μM, read-out: association rate constant): 1400 M⁻¹ s⁻¹
- koff ([4]; immobilized BAD, NPB 20 to 100 μM, read-out: dissociation rate constant): 0.054 s⁻¹
